In PMC5358321 (Synapse (New York, N.Y.), 2016):
Several values for one entry are separate records, joined by “and”; a condition that tells them apart may be missing. Equal entries are not always repeated. Marks after values point to notes of the source that are not given here.

What was measured:
Aβ plaques [1] = biological target: T1, Aβ plaques (Homo sapiens, UniProt P05067); settings: AD brain homogenates using ^18F-florbetapir; ref Choi et al., 2009; cited from earlier work
Aβ plaques [2] = settings: using ^125I-TZDM; ref Kung et al., 2003; cited from earlier work
Aβ plaques [3] = assay: Ki using ^125I-TZDM; format: binding
Aβ plaques [4] = biological target: T1, Aβ plaques; assay: In vitro binding affinity: inhibition of [^3H]PIB binding in human AD brain
Aβ plaques [5] = biological target: T1, Aβ plaques; assay: Postmortem human brain; format: binding; settings: for GM/WM, local hot spots in grey matter: normal control NC2, hippocampus sections 7 μm
[6] = In vivo rat whole body PET/CT, interscapular brown adipose tissue; settings: for IBAT +ATX uptake / Ratio uptake at 4.5 min/uptake at 85 min, IBAT +ATX: atomoxetine preinjection
[7] = In vivo rat PET/CT, brain uptake; settings: for maximum (peak) activity levels in the various brain regions: 90 min scan; for time to approach plateau in cerebellum (CB): postinjection
[8] = normal control NC1, hippocampus sections 7 μm
[9] = subject AD1, hippocampus sections 7 μm
[10] = subject AD2, hippocampus sections 7 μm
[11] = 4.5 min post iv injection, baseline
[12] = 4.5 min, atomoxetine preinjection
[13] = 85 min, atomoxetine preinjection

T1 sequence (P05067 672-711 limits assumed): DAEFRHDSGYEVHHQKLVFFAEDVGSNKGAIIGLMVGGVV

## CNc1ccc(-c2cc3cc(O)ccc3o2)c(F)n1 [AZD4694]
Aβ plaques [1]
  Ki: 0.0023 µM

## CNc1ccc(C=Cc2ccc(N(C)C)cc2)cc1 [Dalene, 4-methylamino-4′-N,N-dimethylaminostyrylbenzene]
Aβ plaques [2]
  Ki: 0.015 µM and 0.0152 µM
Aβ plaques [3]; ^125I-TZDM assay, Kung et al., 2003
  Times weaker affinity compared to SB-13: approximately 5
Aβ plaques [3]; compared to affinity measures of SB-13 in the same assay (^125I-TZDM; Kung et al., 2003)
  Binding affinity relative to SB-13: (0.21) ^i

## CNc1ccc(N=Nc2ccc(N(C)C)cc2)cc1 [TAZA, 4-methylamino-4′-N,N-dimethylaminoazobenzene]
Aβ plaques [4]
  Binding affinity Relative to PIB: 7.81 ^g

## CN(C)c1ccc(C=Cc2ccc(N[11CH3])cc2)cc1 [[^11C]Dalene, ^11C-methylamino-4′-dimethylaminostyrylbenzene]
Aβ plaques [5]; AD subjects
  fold lower GM/WM ratio than [^11C]TAZA: approximately 5 fold
Aβ plaques [5]; [8]
  GM/WM (gray matter to white matter ratio): ~1
Aβ plaques [5]
  GM/WM, local hot spots in grey matter: grey matter (~2)
Aβ plaques [5]; [9]
  GM/WM (gray matter to white matter ratio): 3.68
Aβ plaques [5]; [10]
  GM/WM (gray matter to white matter ratio): 5.34
[6]; 4.5 min (initial uptake)
  IBAT +ATX uptake: 0.05 %Injected dose/cc and 0.054 %Injected dose/cc
[6]; [11]
  IBAT Baseline uptake: 0.018 %Injected dose/cc
[6]; 85 min (end of scan), baseline
  IBAT Baseline uptake: 0.12 %Injected dose/cc and 0.118 %Injected dose/cc
[6]; 85 min
  IBAT +ATX uptake: 0.05 %Injected dose/cc
[6]
  Ratio uptake at 4.5 min/uptake at 85 min, IBAT +ATX: 1.08
[6]; baseline
  Ratio uptake at 4.5 min/uptake at 85 min, IBAT Baseline: 0.15
[7]; [12]
  Cerebellum +ATX uptake: 0.788 %injected dose/cc
  Frontal Cortex +ATX uptake: 0.828 %injected dose/cc
[7]; [11]
  Brain-stem uptake: 0.011 %injected dose/cc
  Cerebellum uptake: 0.015 %injected dose/cc
  Frontal Cortex uptake: 0.015 %injected dose/cc
[7]; 85 min (end of scan), baseline
  Brain-stem uptake: 0.124 %injected dose/cc
[7]; [13]
  Cerebellum +ATX uptake: 0.304 %injected dose/cc
  Frontal Cortex +ATX uptake: 0.30 %injected dose/cc and 0.304 %injected dose/cc
  Ratio of brainstem to frontal cortex: 1.75
  Ratio of cerebellum to frontal cortex: 1.0
[7]; 85 min, baseline
  Cerebellum uptake: 0.072 %injected dose/cc
  Frontal Cortex uptake: 0.069 %injected dose/cc
[7]; 85 min postinjection, baseline
  Ratio of brainstem to frontal cortex: 1.80
  Ratio of cerebellum to frontal cortex: 1.04
[7]; atomoxetine preinjection
  Ratio uptake at 4.5 min/uptake at 85 min, Brain-stem +ATX: 2.12
  Ratio uptake at 4.5 min/uptake at 85 min, Cerebellum +ATX: 2.59
  Ratio uptake at 4.5 min/uptake at 85 min, Frontal Cortex +ATX: 2.72
[7]; baseline
  Ratio uptake at 4.5 min/uptake at 85 min, Brain-stem: 0.09
  Ratio uptake at 4.5 min/uptake at 85 min, Cerebellum: 0.21
  time at which brain uptake plateaued: approximately 60 min
  maximum (peak) activity levels in the various brain regions: approximately 0.1 % injected dose/cc
  time to approach plateau in cerebellum (CB): approximately 40 min

## [11CH3]Nc1ccc(-c2nc3ccc(O)cc3s2)cc1 [[^11C]PIB]
[6]; 85 min (end of scan), baseline
  IBAT Baseline uptake: 0.056 %Injected dose/cc
[7]; [11]
  Cerebellum uptake: 0.823 %injected dose/cc
  Frontal Cortex uptake: 0.714 %injected dose/cc
[7]; 85 min (end of scan), baseline
  Brain-stem uptake: 0.056 %injected dose/cc
[7]; 85 min, baseline
  Cerebellum uptake: 0.124 %injected dose/cc
  Frontal Cortex uptake: 0.045 %injected dose/cc

## CN(C)c1ccc(N=Nc2ccc(N[11CH3])cc2)cc1 [[^11C]TAZA, 4-[^11C]methylamino-4′-N,N-dimethylaminoazo-benzene]
Aβ plaques [5]; 10 μM PIB, gray matter of AD1 and AD2 hippocampus
  displacement of [^11C]TAZA binding by PIB: > 90% and > 94%
Aβ plaques [5]; AD brains, summary statement
  gray matter to white matter ratios in AD brains: > 20
Aβ plaques [5]; [8]
  GM/WM (gray matter to white matter ratio): ~1
Aβ plaques [5]
  GM/WM, local hot spots in grey matter: in grey matter (≥5)
Aβ plaques [5]; [9]
  GM/WM (gray matter to white matter ratio): 19.6
Aβ plaques [5]; [10]
  GM/WM (gray matter to white matter ratio): 30.5
[6]; 4.5 min (initial uptake)
  IBAT +ATX uptake: 0.15 %Injected dose/cc and 0.148 %Injected dose/cc
[6]; [11]
  IBAT Baseline uptake: 0.015 %Injected dose/cc
[6]; 85 min (end of scan), baseline
  IBAT Baseline uptake: 0.43 %Injected dose/cc and 0.429 %Injected dose/cc
[6]; 85 min
  IBAT +ATX uptake: 0.02 %Injected dose/cc and 0.016 %Injected dose/cc
[6]
  Ratio uptake at 4.5 min/uptake at 85 min, IBAT +ATX: 9 and 9.25
[6]; baseline
  Ratio uptake at 4.5 min/uptake at 85 min, IBAT Baseline: 0.04
  time at which IBAT activity leveled off / plateau: ~90 min
[7]; [12]
  Cerebellum +ATX uptake: 0.695 %injected dose/cc
  Frontal Cortex +ATX uptake: 0.627 %injected dose/cc
[7]; [11]
  Brain-stem uptake: 0.013 %injected dose/cc
  Cerebellum uptake: 0.010 %injected dose/cc
  Frontal Cortex uptake: 0.007 %injected dose/cc
[7]; 85 min (end of scan), baseline
  Brain-stem uptake: 0.285 %injected dose/cc
[7]; [13]
  Cerebellum +ATX uptake: 0.154 %injected dose/cc
  Frontal Cortex +ATX uptake: 0.160 %injected dose/cc
[7]; 85 min, baseline
  Cerebellum uptake: 0.192 %injected dose/cc
  Frontal Cortex uptake: 0.16 %injected dose/cc
[7]; 85 min postinjection, baseline
  Ratio of brainstem to frontal cortex: 1.78
  Ratio of cerebellum to frontal cortex: 1.20
[7]; atomoxetine preinjection
  Ratio uptake at 4.5 min/uptake at 85 min, Brain-stem +ATX: 4.2
  Ratio uptake at 4.5 min/uptake at 85 min, Cerebellum +ATX: 4.51
  Ratio uptake at 4.5 min/uptake at 85 min, Frontal Cortex +ATX: 3.92
[7]; atomoxetine preinjection, brain regions overall
  ratio between initial time (4.5 min) and later time (85 min), brain regions: ~5
[7]; baseline
  Ratio uptake at 4.5 min/uptake at 85 min, Brain-stem: 0.05
  Ratio uptake at 4.5 min/uptake at 85 min, Cerebellum: 0.05
  time at which brain uptake plateaued: approximately 60 min
  maximum (peak) activity levels in the various brain regions: approximately 0.3 % injected dose/cc
  time to approach plateau in cerebellum (CB): approximately 50 min
[7]; end of scan
  reduction of brainstem to frontal cortex ratio by atomoxetine: approximately 10%
